Source: the NIST ThermoML archive (doi:10.1021/je400562z)

Conditions: for surface tension liquid-gas: Ring tensiometer; for mass density / viscosity: 101.33 kPa, Liquid; for viscosity: Concentric cylinders viscometry

CN(CCO)CCO [N-methyldiethanolamine]
Conditions	mass density [kg/m3]	surface tension liquid-gas [mN/m]	viscosity [mPa·s]
303.15 K	1033.8	37.33	56.3
313.15 K	1026.7	–	34.45
323.15 K	1018.9	–	22.93
333.15 K	–	35.47	14.99
